Measured values taken from ChEMBL document CHEMBL1128951, “6-(4-Phenyl-benzyloxy-methyl) guvacine. Synthesis, GABA uptake inhibitor and muscarinic properties” (Bioorg Med Chem Lett, 1996).

Columns and labels:
[1] = In vitro inhibitory activity against gamma-aminobutyric acid (GABA) uptake; format: functional
[2] = biological target: T1, Muscarinic acetylcholine receptor M2 (Homo sapiens) (UniProt P08172); test: Compound was evaluated for binding affinity by displacement of [3H]NMS from muscarinic M2 receptor at concentration 100 nM.
T1 sequence (whole entry): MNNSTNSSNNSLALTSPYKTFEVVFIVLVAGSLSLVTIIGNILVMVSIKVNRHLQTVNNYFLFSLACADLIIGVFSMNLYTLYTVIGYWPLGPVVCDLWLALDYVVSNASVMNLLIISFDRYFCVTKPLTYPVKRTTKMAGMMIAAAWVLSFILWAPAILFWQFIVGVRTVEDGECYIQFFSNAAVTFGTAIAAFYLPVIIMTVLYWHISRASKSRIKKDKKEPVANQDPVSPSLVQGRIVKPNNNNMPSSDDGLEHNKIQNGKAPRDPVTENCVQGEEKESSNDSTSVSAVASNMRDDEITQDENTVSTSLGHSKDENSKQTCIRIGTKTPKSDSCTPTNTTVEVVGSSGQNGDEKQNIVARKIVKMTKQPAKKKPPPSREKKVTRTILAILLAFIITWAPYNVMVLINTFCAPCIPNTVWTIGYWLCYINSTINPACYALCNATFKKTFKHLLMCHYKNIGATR

[3] = biological target: T2, Muscarinic acetylcholine receptor M1 (Homo sapiens) (UniProt P11229); test: Compound was evaluated for binding affinity by displacement of [3H]pirenzepine from muscarinic M1 receptor at concentration 100 nM.
T2 sequence (whole entry): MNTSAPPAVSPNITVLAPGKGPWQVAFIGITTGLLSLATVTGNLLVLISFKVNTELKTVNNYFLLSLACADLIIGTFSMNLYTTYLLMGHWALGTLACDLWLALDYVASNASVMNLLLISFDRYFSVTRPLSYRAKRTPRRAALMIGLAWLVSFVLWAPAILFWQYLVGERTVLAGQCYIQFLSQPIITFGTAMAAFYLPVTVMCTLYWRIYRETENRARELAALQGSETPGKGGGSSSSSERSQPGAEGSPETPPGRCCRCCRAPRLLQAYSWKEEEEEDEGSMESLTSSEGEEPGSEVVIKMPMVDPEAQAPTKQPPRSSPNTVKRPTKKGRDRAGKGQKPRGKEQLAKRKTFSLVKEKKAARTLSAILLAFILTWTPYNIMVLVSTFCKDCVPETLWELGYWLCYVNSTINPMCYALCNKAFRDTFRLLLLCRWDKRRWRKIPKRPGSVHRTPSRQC

| IC50 [1] | inhibition [2] | inhibition [3] | Structure (SMILES) |
| --- | --- | --- | --- |
| 100 nM | – | – | O=C(O)C1=CCC(CCC(c2ccccc2)c2ccccc2)NC1 (stereo unspecified) |
| – | 59% | 57% | O=C(O)C1=CCC(COCc2ccc(-c3ccccc3)cc2)NC1 (stereo unspecified) |
| 210 nM | – | – | O=C(O)C1=CCCN(CCC=C(c2ccccc2)c2ccccc2)C1 |
| – | 14% | 12% | CCOC(=O)C1=CCC(COCc2ccc(-c3ccccc3)cc2)NC1 (stereo unspecified) |
